Test results taken from ChEMBL document CHEMBL5241104, “Reactive metabolites of the anticonvulsant drugs and approaches to minimize the adverse drug reaction” (Eur J Med Chem, 2021).

What was measured:
[1] = tested on: Mus musculus; assay: Anticonvulsant activity in CD-1 mouse assessed as protection against Sc-Met induced seizure at ip administrated for 30 mins; assay type: functional; settings: CD-1, 0.5 h
[2] = tested on: Mus musculus; assay: Anticonvulsant activity in CD-1 mouse assessed as protection against maximal electroshock induced seizure at ip administrated for 30 mins; assay type: functional; settings: CD-1, 0.5 h
[3] = Toxicity in CD-1 mouse assessed as median toxicity dose at ip administration for 30 mins by rotorod test; assay type: organism-based; settings: in vivo
[4] = tested on: Mus musculus; assay: Anticonvulsant activity in mouse assessed as protection against maximal electroshock induced seizure at ip administration for 120 mins; assay type: functional; settings: 2 h
[5] = tested on: Mus musculus; assay: Anticonvulsant activity in mouse assessed as inhibition of maximal electroshock induced seizure at 200 mg/kg,po administration for 120 mins; assay type: functional; settings: 2 h
[6] = tested on: Mus musculus; assay: Anticonvulsant activity in CD-1 mouse assessed as protection against maximal electroshock induced seizure at ip administrated for 2 hrs; assay type: functional
[7] = tested on: Mus musculus; assay: Anticonvulsant activity in CD-1 mouse assessed as protection against Sc-PTZ induced seizure at ip administrated for 2 hrs; assay type: functional
[8] = Protective index, ratio of TD50 for toxicity in CD-1 mouse assessed as median toxicity dose at ip administration by rotorod test to ED50 for anticonvulsant activity in CD-1 mouse assessed as protection against maximal electroshock induced seizure at ip administration; assay type: organism-based; settings: in vivo, read-out: Ratio TD50/ED50
[9] = Protective index, ratio of TD50 for toxicity in CD-1 mouse assessed as median toxicity dose at ip administration by rotorod test to ED50 for anticonvulsant activity in CD-1 mouse assessed as protection against Sc-PTZ induced seizure at ip administration; assay type: organism-based; settings: in vivo, read-out: Ratio TD50/ED50
[10] = tested on: Mus musculus; assay: Anticonvulsant activity in mouse assessed as protection against Sc-pTZ induced seizure at ip administration for 5 mins; assay type: functional
[11] = tested on: Rattus norvegicus; assay: Anticonvulsant activity in Sprague-Dawley rat assessed as protection against Sc-metrazol induced seizure at po administration; assay type: functional
[12] = tested on: Mus musculus; assay: Anticonvulsant activity in Albino mouse assessed as protection against Sc-metrazol induced seizure at ip administration; assay type: functional
[13] = Neurotoxicity in Sprague-Dawley rat assessed as median toxic dose at ip administration; assay type: toxicity, organism-based; settings: in vivo
[14] = tested on: Mus musculus; assay: Anticonvulsant activity in Albino mouse assessed as protection against maximal electroshock induced seizure at ip administration; assay type: functional
[15] = tested on: Mus musculus; assay: Anticonvulsant activity in Albino mouse assessed as protection against 6-Hz psychomotor induced seizure at ip administration; assay type: functional
[16] = tested on: Rattus norvegicus; assay: Anticonvulsant activity in Sprague-Dawley rat assessed as protection against pilocarpine induced epilepticus at po administration; assay type: functional
[17] = Protective index, ratio of TD50 for toxicity in Sprague-Dawley rat at po administration to ED50 for anticonvulsant activity in Sprague-Dawley rat assessed as protection against pilocarpine induced epilepticus at po administration; assay type: organism-based; settings: in vivo, read-out: Ratio TD50/ED50
[18] = (§1) Protective index, ratio of TD50 for toxicity in CF-1 mouse assessed as median toxicity dose at ip administration upto 4 hrs by rotorod test to ED50 for anticonvulsant activity in CF-1 mouse assessed as protection against maximal electroshock induced seizure at ip administration upto 4 hrs; assay type: organism-based; settings: in vivo, read-out: Ratio TD50/ED50
[19] = tested on: Mus musculus; assay: Anticonvulsant activity in CF-1 mouse assessed as protection against maximal electroshock induced seizure at ip administrated upto 4 hrs; assay type: functional
[20] = Toxicity in CF-1 mouse assessed as median toxic dose at ip administrated upto 4 hrs; assay type: organism-based; settings: in vivo
[21] = Toxicity in Swiss albino mouse assessed as median toxicity dose at ip administration; assay type: organism-based; settings: in vivo
[22] = tested on: Mus musculus; assay: Anticonvulsant activity in Swiss albino mouse assessed as protection against PTZ induced seizure at ip administration for 30 mins; assay type: functional; settings: 0.5 h
[23] = tested on: Rattus norvegicus; assay: Anticonvulsant activity in rat brain assessed as increase in GABA level at 100 mg/kg,ip administrated for 2 hrs by spectrophotometric method; assay type: functional
[24] = Hepatotoxicity in rat assessed as total protein level at 100 mg/kg,ip administrated for 2 hrs by spectrophotometric method; assay type: toxicity, organism-based; settings: in vivo
[25] = Hepatotoxicity in rat assessed as total albumin level at 100 mg/kg,ip administrated for 2 hrs by spectrophotometric method; assay type: toxicity, organism-based; settings: in vivo
[26] = Toxicity in bicuculline induced Swiss mouse seizure model assessed as death at 50 mg/kg,ip administration for 30 mins; assay type: organism-based; settings: in vivo, read-out: Activity
[27] = Toxicity in 3-MP induced Swiss mouse seizure model assessed as death at 50 mg/kg,ip administration for 30 mins; assay type: organism-based; settings: in vivo, read-out: Activity
[28] = tested on: Mus musculus; assay: Anticonvulsant activity against 3-MP induced Swiss mouse seizure model assessed as inhibition of clonic seizures at 50 mg/kg,ip administration for 30 mins; assay type: functional; settings: 0.5 h
[29] = Neurotoxicity in Swiss mouse assessed as median toxicity dose at ip administration by rotorod test; assay type: organism-based; settings: in vivo
[30] = tested on: Mus musculus; assay: Anticonvulsant activity against bicuculline induced Swiss mouse seizure model assessed as inhibition of clonic seizures at 50 mg/kg,ip administration for 30 mins; assay type: functional; settings: 0.5 h
[31] = tested on: Mus musculus; assay: Anticonvulsant activity against bicuculline induced Swiss mouse seizure model assessed as inhibition of tonic seizures at 50 mg/kg,ip administration for 30 mins; assay type: functional; settings: 0.5 h
[32] = tested on: Mus musculus; assay: Anticonvulsant activity against 3-MP induced Swiss mouse seizure model assessed as inhibition of tonic seizures at 50 mg/kg,ip administration for 30 mins; assay type: functional; settings: 0.5 h
[33] = tested on: Mus musculus; assay: Anticonvulsant activity in Swiss mouse assessed as protection against Sc-PTZ induced seizure at ip administration; assay type: functional
[34] = Toxicity in Sprague-Dawley rat assessed as median toxic dose at po administrated upto 4 hrs by rotorod test; assay type: organism-based; settings: in vivo
[35] = as §1, with “Sprague-Dawley rat” for “CF-1 mouse”, “po” for “ip”; assay type: organism-based; settings: in vivo, read-out: Ratio TD50/ED50

For `Cc1cccc(C)c1NC(=O)c1cc(CO)on1`, the ED50 [1] was > 30 mg/kg, the ED50 [2] was 8.7 mg/kg and the TD50 at 0.5 h [3] was 28.5 mg/kg.
In the case of `CC1(C)OCC(CO[S+](N)[O-])O1` (stereo not given), the ED50 [4] is reported as 105 mg/kg and the inhibition in vivo at 200 mg/kg [5] is reported as ≥ 80%.
For `CC1(c2ccccc2)CC(=O)N(CCC(=O)N2CCN(c3ccccc3F)CC2)C1=O` (stereo not given), the ED50 [6] was 78.3 mg/kg, the ED50 [7] was 114 mg/kg and the selectivity ratio [8] was > 3.83. For the same molecule, the selectivity ratio [9] was > 2.63.
Molecule `CC(C)(C)NC(=O)C(c1cccc(Br)c1)N1Cc2cnnn2-c2cc(Cl)ccc2C1=O` (stereo not given) has an Activity [10] of 56.94%.
`CCCC(CC)C(=O)NOC` (stereo not given) gave an ED50 [11] of 36 mg/kg, an ED50 [12] of 70 mg/kg and a TD50 [13] of 118 mg/kg. The ED50 [14] was 142 mg/kg, the ED50 [15] was 50 mg/kg and the ED50 [16] was 200 mg/kg. The selectivity ratio [17] was > 5.5.
With `CC1CC(Nc2ccon2)=CC(=O)C1C(=O)OC(C)(C)C` (stereo not given) the selectivity ratio at 4 h [18] was > 17.8, the ED50 [19] was 28.1 mg/kg and the TD50 at 4 h [20] was > 500 mg/kg.
In the case of `CCCC(CCC)c1nnc(Nc2ccccc2)s1`, the TD50 [21] is reported as 419 mg/kg and the ED50 [22] is reported as 187 mg/kg.
Work on `Nc1ccc(Cl)cc1-c1n[nH]c(=O)n(-c2ccc(O)cc2)c1=O` yielded an Activity [23] of 87.4 mg, an Activity [24] of 4.78 g/dL and an Activity [25] of 1.61 g/dL.
Molecule `CN1C(=O)CC(=O)N(C)c2cc(NCc3ccc(F)cc3)ccc21` has a mortality at 0.5 h [26] of 70%, a mortality at 0.5 h [27] of 20% and an inhibition in vivo at 50 mg/kg [28] of 100%. The TD50 [29] was 164 mg/kg, the inhibition in vivo at 50 mg/kg [30] was 80% and the inhibition in vivo at 50 mg/kg [31] was 100%. The inhibition in vivo at 50 mg/kg [32] was 80% and the ED50 [33] was 68 mg/kg.
With `CCOC(=O)C1C(=O)C=C(Nc2cc(C)on2)CC1C` (stereo not given) the TD50 at 4 h [34] was > 500 mg/kg and the selectivity ratio at 4 h [35] was > 49.6.
